Laboratory results reported in patent US10227331B2 (priority 2015, dated 2019).
Where two headings read alike, the source gives them in different places.

Columns and labels:
[1] = test system: P. aeruginosa expressing IMP-1, efflux− (MB9799); assay: Efflux: concentration of MBL inhibitor which restores susceptibility to imipenem; format: cell-based, Pseudomonas aeruginosa; details: imipenem at 2 μg/mL, in the presence of a class A, C, D serine β-lactamase inhibitor closely related to relebactam
Excerpt: (§1) The strain background is Pseudomonas aeruginosa PAO1.

NDM-1 = NDM-1 (Klebsiella pneumoniae, UniProt C7C422); assay: biochemical; format: biochemical; details: CCF2-FA substrate, 2 hours at 25° C; read-out: NDM-1 IC50
Outline: (§2)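 IC50 values derive from 4-parameter fits of percent inhibition against inhibitor concentration on semi-log axes. Activity was monitored by fluorescence with the CCF2-FA substrate after a 2-hour, 25° C incubation of compound, enzyme and substrate.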

IMP-1 = IMP-1 (Serratia marcescens, UniProt P52699); assay: biochemical; format: biochemical
Outline: as §2

[2] = test system: P. aeruginosa expressing IMP-1, efflux+ (MB9798); format: cell-based, Pseudomonas aeruginosa; details: for P. aeruginosa expressing IMP-1, efflux+ (MB9798) MITC95: imipenem at 2 μg/mL, in the presence of a class A, C, D serine β-lactamase inhibitor closely related to relebactam; for Efflux ratio: ratio MITC95 PA_9798/MITC95 PA_9799
Excerpt: as §1

[3] = test system: Escherichia coli expressing NDM-1 (CLB30005, CLB30016); format: cell-based; details: with imipenem 1 μg/ml, 95% inhibition of bacterial growth; for Escherichia coli MITC95: NDM-1 (CLB30016)
Outline: (§3)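 Restoration of imipenem susceptibility (1 μg/ml imipenem) was judged by absorbance after 22–24 h at 35° C. Test compound was added to bacteria suspended 1:100 in 1.1× CAMHB from overnight blood-agar cultures.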

[4] = test system: Serratia marcescens expressing IMP-1 (CL5741); format: cell-based; details: with imipenem 1 μg/ml, 95% inhibition of bacterial growth; for Serratia marcescens MITC95: IMP-1 (CL5741)
Outline: as §3

[5] = test system: Klebsiella pneumoniae expressing VIM-1 (IHMA599644); format: cell-based; details: with imipenem 1 μg/ml, 95% inhibition of bacterial growth; for Klebsiella pneumoniae MITC95: VIM-1 (IHMA599644)
Outline: as §3

VIM-1 = VIM-1 (Pseudomonas aeruginosa (strain ATCC 15692 / DSM 22644 / CIP 104116 / JCM 14847 / LMG 12228 / 1C / PRS 101 / PAO1), UniProt A0A0F7KYQ8); assay: biochemical; details: CCF2-FA substrate, 2 hours at 25° C
Outline: as §2

[6] = CCF2-FA substrate, 2 hours at 25° C, read-out: IMP-1 IC50

Chain of IMP-1 (P52699 whole entry, looked up, species assumed): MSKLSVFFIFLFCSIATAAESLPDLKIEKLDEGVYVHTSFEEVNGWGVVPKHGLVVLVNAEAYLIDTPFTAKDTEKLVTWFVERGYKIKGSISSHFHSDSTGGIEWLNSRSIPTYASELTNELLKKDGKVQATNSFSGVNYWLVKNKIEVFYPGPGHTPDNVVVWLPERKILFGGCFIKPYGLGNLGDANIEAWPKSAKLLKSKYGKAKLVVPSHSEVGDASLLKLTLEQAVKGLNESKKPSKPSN
Chain of NDM-1 (C7C422 whole entry, looked up, species assumed): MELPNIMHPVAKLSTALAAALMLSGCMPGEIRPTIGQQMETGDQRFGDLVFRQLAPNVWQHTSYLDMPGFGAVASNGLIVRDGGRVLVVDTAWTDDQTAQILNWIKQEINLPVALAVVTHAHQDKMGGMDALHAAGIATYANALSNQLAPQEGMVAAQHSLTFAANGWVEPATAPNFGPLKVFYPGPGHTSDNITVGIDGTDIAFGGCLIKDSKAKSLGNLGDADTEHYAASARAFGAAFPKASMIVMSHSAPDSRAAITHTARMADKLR

Structure (SMILES)	P. aeruginosa expressing IMP-1, efflux− (MB9799) MITC95 [1]	IC50 (NDM-1)	IC50 (IMP-1; [6])	P. aeruginosa expressing IMP-1, efflux+ (MB9798) MITC95 [2]	Efflux ratio [2]	Escherichia coli expressing NDM-1 (CLB30016) MITC95 [3]	Serratia marcescens expressing IMP-1 (CL5741) MITC95 [4]	Klebsiella pneumoniae expressing VIM-1 (IHMA599644) MITC95 [5]	IC50 (VIM-1)	IC50 (IMP-1)	Escherichia coli MITC95 [3]	Serratia marcescens MITC95 [4]	Klebsiella pneumoniae MITC95 [5]
Nc1nc2cc(-c3ccc(S(=O)(=O)C4CNC4)c(S(N)(=O)=O)c3-c3nn[nH]n3)ccn2n1 [Example 217, 3-(2-amino-[1,2,4]triazolo[1,5-a]pyridin-7-yl)-6-(azetidin-3-ylsulfonyl)-2-(2H-tetrazol-5-yl) benzenesulfonamide]	1.563 µM	1.49 nM	3.81 nM	12.5 µM	8.00	6.25 µM	3.125 µM	6.25 µM	0.313 nM				
NS(=O)(=O)c1c(S(=O)(=O)[C@H]2CCNC2)ccc(-c2cccc3cn[nH]c23)c1-c1nn[nH]n1 [Example 186, 3-(1H-indazol-7-yl)-6-((S)-pyrrolidin-3-ylsulfonyl)-2-(2H-tetrazol-5-yl)benzenesulfonamide]	0.7813 µM	0.246 nM	0.541 nM	1.563 µM	2.00	1.563 µM	1.563 µM	1.563 µM	0.228 nM				
NCCS(=O)(=O)c1ccc(-c2cnc(O)nc2)c(-c2nnn[nH]2)c1S(N)(=O)=O.O=C(O)C(F)(F)F [Example 137, 2-((4-(2-hydroxypyrimidin-5-yl)-2-sulfamoyl-3-(1H-tetrazol-5-yl)phenyl)sulfonyl)ethanaminium 2,2,2-trifluoroacetate]	1.563 µM	16.8 nM	32.6 nM	25 µM	15.99	0.7813 µM	1.563 µM	3.125 µM	23.5 nM				
NS(=O)(=O)c1c(S(=O)(=O)C2CNC2)ccc(-c2cccc3nccn23)c1-c1nnn[nH]1 [Example 66, 6-(Azetidin-3-ylsulfonyl)-3-(imidazo[1,2-a]pyridin-5-yl)-2-(1H-tetrazol-5-yl)benzenesulfonamide]	6.25 µM	0.591 nM	9.67 nM	50 µM	8.00	3.125 µM	6.25 µM	12.5 µM	0.569 nM				
NCCS(=O)(=O)c1ccc(-c2cccc3nc(N)oc23)c(-c2nn[nH]n2)c1S(N)(=O)=O [Example 74, 3-(2-aminobenzo[d]oxazol-7-yl)-6-(2-aminoethylsulfonyl)-2-(2H-tetrazol-5-yl)benzenesulfonamide]	0.7813 µM	0.096 nM		3.125 µM	4.00	0.7813 µM	1.563 µM	3.125 µM	0.172 nM	0.989 nM			
NCCS(=O)(=O)c1ccc(-c2cccc3nc(N)[nH]c23)c(-c2nn[nH]n2)c1S(N)(=O)=O [Example 70, 3-(2-amino-3H-benzo[d]imidazol-4-yl)-6-(2-aminoethylsulfonyl)-2-(2H-tetrazol-5-yl)benzenesulfonamide]	0.4453 µM	0.251 nM	0.796 nM	0.4453 µM	1.00	0.25 µM	0.6406 µM	0.8906 µM	0.37 nM				
NCCS(=O)(=O)c1ccc(-c2cncc(CO)c2)c(-c2nnn[nH]2)c1S(N)(=O)=O.O=C(O)C(F)(F)F [Example 143, 2-((4-(5-(hydroxymethyl)pyridin-3-yl)-2-sulfamoyl-3-(1H-tetrazol-5-yl)phenyl)sulfonyl)ethanaminium 2,2,2-trifluoroacetate]	1.563 µM	11.2 nM	8.83 nM	12.5 µM	8.00	1.563 µM	3.125 µM	3.125 µM	2.02 nM				
Cn1cc2ccc(-c3ccc(S(=O)(=O)CCN)c(S(N)(=O)=O)c3-c3nnn[nH]3)cc2n1.O=C(O)C(F)(F)F [Example 154, 2-((4-(2-methyl-2H-indazol-6-yl)-2-sulfamoyl-3-(1H-tetrazol-5-yl)phenyl)sulfonyl)ethanaminium 2,2,2-trifluoroacetate]	1.563 µM	1.13 nM	0.676 nM	12.5 µM	8.00	3.125 µM	3.125 µM	6.25 µM	0.43 nM				
CC(=O)Nc1nc2c(-c3ccc(S(=O)(=O)CCN)c(S(N)(=O)=O)c3-c3nn[nH]n3)cccc2s1 [Example 82, N-(4-(4-(2-aminoethylsulfonyl)-3-sulfamoyl-2-(2H-tetrazol-5-yl)phenyl)benzo[d]thiazol-2-yl)acetamide]	1.563 µM	0.0871 nM	0.194 nM	3.125 µM	2.00	1.563 µM	1.563 µM	3.125 µM	0.131 nM				
NCCS(=O)(=O)c1ccc(-c2cccn3ccnc23)c(-c2nnn[nH]2)c1S(N)(=O)=O [Example 64, 6-((2-Aminoethyl)sulfonyl)-3-(imidazo[1,2-a]pyridin-8-yl)-2-(1H-tetrazol-5-yl)benzenesulfonamide]	1.563 µM	1.06 nM	0.359 nM	1.563 µM	1.00	1.563 µM	1.563 µM	3.125 µM	0.339 nM				
CNC(=O)c1nc2c(-c3ccc(S(=O)(=O)C4CNC4)c(S(N)(=O)=O)c3-c3nn[nH]n3)cccc2[nH]1 [Example 255, 4-(4-(Azetidin-3-ylsulfonyl)-3-sulfamoyl-2-(2H-tetrazol-5-yl)phenyl)-N-methyl-1H-benzo[d]imidazole-2-carboxamide]	3.125 µM	0.151 nM	1.66 nM	12.5 µM	4.00				0.419 nM		6.25 µM	6.25 µM	12.5 µM
NCc1nc2c(-c3ccc(S(=O)(=O)C[C@H](O)CN)c(S(N)(=O)=O)c3-c3nn[nH]n3)cccc2[nH]1 [Example 370, (R)-6-((3-amino-2-hydroxypropyl)sulfonyl)-3-(2-(aminomethyl)-1H-benzo[d]imidazol-4-yl)-2-(2H-tetrazol-5-yl) benzenesulfonamide]	0.7813 µM	0.361 nM	1.25 nM	0.7813 µM	1.00				0.393 nM		0.7813 µM	0.7813 µM	1.563 µM
NCc1nc2c(-c3ccc(S(=O)(=O)C[C@@H](O)CN)c(S(N)(=O)=O)c3-c3nn[nH]n3)cccc2[nH]1 [Example 369, (S)-6-((3-amino-2-hydroxypropyl)sulfonyl)-3-(2-(aminomethyl)-1H-benzo[d]imidazol-4-yl)-2-(2H-tetrazol-5-yl) benzenesulfonamide]	0.7813 µM	0.973 nM	3.57 nM	0.7813 µM	1.00				0.401 nM		0.7813 µM	0.7813 µM	1.563 µM
